Measured values: patent publication US20260028326A1, “COMPOUND BASED ON ISOINDOLINE-SUBSTITUTED GLUTARIMIDE BACKBONE AND USE THEREOF” (GLUETACS THERAPEUTICS (SHANGHAI) CO., LTD., priority 2022, published 2026)

How the values were obtained:
[1] = target: human Cereblon WT GST-tagged protein (Homo sapiens (Human), UniProt Q96SW2); experiment: CRBN-binding affinity, HTRF (CEREBLON BINDING kit)
Outline: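 HTRF competition readout: compounds compete with a thalidomide-Re conjugate for GST-tagged wild-type human CRBN detected via Eu-labelled anti-GST antibody. Inhibition rate derived relative to protein-free blank wells.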

MM.1S cells = experiment: Tumor cell proliferation IC50 (CCK-8), MM.1S; settings: Homo sapiens, MM1.S, 72 h, read-out: IC50 for inhibiting the proliferation of tumor cells, MM.1S;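 further: viability of cultured cells read by CCK-8 reagent after compound exposure, growth inhibition curves fitted to derive IC50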
IKZF1 protein = IKZF1 protein (Homo sapiens (Human), UniProt Q13422+Q96SW2); experiment: Western-blot assay of substrate protein degradation in hPBMC, IKZF1; type: cell-based; settings: for residual substrate protein level, IKZF1: hPBMC cells, compound 500 nM, 24 hours, Western blot
IKZF1 protein, sequence (Q13422 whole entry): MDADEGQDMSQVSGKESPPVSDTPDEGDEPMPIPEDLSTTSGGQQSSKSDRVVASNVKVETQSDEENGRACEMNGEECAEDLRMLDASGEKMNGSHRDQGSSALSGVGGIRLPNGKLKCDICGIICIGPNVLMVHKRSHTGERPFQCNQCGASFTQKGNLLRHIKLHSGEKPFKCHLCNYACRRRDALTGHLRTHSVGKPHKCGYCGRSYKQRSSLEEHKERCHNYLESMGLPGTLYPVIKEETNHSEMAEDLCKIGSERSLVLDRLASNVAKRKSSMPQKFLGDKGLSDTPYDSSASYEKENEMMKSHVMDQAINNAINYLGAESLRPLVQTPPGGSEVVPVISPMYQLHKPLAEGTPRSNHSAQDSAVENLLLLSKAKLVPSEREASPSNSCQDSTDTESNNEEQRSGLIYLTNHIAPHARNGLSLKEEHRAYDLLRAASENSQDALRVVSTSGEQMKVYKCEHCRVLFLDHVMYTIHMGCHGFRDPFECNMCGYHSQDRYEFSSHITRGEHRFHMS
IKZF1 protein, sequence (Q96SW2 whole entry): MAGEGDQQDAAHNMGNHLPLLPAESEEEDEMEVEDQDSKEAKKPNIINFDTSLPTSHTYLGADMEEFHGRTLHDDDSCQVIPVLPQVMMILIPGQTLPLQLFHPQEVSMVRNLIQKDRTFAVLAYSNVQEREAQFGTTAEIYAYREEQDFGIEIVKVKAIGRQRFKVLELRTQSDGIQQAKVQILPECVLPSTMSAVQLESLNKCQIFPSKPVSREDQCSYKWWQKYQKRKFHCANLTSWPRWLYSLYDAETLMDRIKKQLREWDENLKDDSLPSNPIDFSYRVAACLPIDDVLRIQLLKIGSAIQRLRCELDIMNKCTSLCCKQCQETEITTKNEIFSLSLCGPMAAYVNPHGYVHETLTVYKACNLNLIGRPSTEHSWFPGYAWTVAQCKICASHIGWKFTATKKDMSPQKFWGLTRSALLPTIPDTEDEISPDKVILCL
IKZF1 protein, sequence (Q16531 whole entry partner): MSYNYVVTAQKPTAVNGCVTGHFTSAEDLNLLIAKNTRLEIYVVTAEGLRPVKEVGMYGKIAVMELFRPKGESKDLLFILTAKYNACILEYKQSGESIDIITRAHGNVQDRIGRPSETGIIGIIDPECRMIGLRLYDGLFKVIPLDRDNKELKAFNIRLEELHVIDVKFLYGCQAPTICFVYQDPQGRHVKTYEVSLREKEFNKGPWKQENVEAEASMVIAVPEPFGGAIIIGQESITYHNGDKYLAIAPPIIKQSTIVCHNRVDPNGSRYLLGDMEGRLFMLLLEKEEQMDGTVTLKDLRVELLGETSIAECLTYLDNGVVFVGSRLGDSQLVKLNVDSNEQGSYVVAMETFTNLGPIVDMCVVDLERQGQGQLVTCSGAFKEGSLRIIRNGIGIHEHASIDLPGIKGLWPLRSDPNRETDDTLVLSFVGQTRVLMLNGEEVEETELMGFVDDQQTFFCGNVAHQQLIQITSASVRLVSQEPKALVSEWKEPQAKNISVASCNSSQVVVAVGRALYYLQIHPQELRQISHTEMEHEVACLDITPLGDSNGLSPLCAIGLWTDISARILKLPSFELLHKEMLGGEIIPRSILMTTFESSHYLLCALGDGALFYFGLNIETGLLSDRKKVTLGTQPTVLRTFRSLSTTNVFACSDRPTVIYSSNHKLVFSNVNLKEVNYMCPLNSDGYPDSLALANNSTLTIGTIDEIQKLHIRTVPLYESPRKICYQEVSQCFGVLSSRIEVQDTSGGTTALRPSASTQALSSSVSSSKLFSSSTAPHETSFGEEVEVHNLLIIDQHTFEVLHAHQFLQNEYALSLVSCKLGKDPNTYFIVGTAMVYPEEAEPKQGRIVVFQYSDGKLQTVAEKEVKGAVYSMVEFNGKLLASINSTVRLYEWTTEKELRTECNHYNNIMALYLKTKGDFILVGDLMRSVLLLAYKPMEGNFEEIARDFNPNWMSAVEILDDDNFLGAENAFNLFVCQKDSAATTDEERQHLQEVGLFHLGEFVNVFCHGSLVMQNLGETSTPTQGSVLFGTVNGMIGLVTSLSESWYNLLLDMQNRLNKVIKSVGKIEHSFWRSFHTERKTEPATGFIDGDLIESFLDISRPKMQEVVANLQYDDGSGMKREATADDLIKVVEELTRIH

Mino cells = experiment: Tumor cell proliferation IC50 (CCK-8), Mino; settings: Homo sapiens, 72 h, read-out: IC50 for inhibiting the proliferation of tumor cells, Mino;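 further: cell viability assessed with CCK-8 reagent after compound exposure, IC50 derived from plotted growth inhibition curves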
Method: The tumor cells used herein were cultured in a cell culture medium listed in table A at 37° C. in an incubator with 5% CO2.
After the cells were treated with the compounds of the present disclosure for a period of time, the cell viability detection reagent was added to the culture medium for cell viability assessment according to the instructions provided with the CCK-8 kit. […] The growth inhibition of the compounds of the present disclosure on cells was plotted by Prism Graphpad software, and the IC50 values of the compounds of the present disclosure were calculated therefrom.

IKZF3 protein = IKZF3 protein (Homo sapiens (Human), UniProt Q96SW2+Q9UKT9); experiment: Western-blot assay of substrate protein degradation in hPBMC, IKZF3; type: cell-based; settings: for residual substrate protein level, IKZF3: hPBMC cells, compound 500 nM, 24 hours, Western blot
IKZF3 protein, sequence (Q9UKT9 whole entry): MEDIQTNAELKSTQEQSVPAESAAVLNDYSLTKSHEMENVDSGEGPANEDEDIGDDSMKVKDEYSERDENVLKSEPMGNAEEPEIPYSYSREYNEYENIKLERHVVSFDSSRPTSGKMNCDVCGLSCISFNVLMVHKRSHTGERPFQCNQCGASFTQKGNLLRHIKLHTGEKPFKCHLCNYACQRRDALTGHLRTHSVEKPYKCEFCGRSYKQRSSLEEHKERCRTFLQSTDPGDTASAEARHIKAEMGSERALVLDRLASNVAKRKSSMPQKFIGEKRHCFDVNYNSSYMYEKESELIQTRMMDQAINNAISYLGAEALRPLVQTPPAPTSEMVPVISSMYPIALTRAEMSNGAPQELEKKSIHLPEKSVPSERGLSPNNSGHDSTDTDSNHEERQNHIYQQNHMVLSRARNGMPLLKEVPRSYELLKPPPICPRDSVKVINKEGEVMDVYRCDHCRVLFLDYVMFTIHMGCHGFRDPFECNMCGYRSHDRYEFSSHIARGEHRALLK
IKZF3 protein, sequence (Q96SW2 whole entry): as the sequence (Q96SW2 whole entry) above
IKZF3 protein, sequence (Q16531 whole entry partner): as the sequence (Q16531 whole entry partner) above

GSPT1 protein = GSPT1 protein (Homo sapiens (Human), UniProt P15170+Q96SW2); experiment: Western-blot assay of substrate protein degradation in hPBMC, GSPT1; type: cell-based; settings: for residual substrate protein level, GSPT1: hPBMC cells, compound 500 nM, 24 hours, Western blot
GSPT1 protein, sequence (P15170 whole entry): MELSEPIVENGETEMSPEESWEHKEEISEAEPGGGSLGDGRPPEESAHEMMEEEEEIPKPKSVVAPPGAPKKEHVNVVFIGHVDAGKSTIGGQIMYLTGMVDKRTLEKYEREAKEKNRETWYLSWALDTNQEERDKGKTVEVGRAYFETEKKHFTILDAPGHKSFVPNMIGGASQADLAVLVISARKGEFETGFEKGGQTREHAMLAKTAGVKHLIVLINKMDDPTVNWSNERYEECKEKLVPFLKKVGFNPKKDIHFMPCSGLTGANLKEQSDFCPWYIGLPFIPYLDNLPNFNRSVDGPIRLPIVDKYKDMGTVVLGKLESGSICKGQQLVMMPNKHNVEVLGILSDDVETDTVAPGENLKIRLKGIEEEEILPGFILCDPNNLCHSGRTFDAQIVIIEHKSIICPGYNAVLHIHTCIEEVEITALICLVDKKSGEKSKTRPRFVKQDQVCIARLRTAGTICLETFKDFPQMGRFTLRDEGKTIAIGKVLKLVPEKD
GSPT1 protein, sequence (Q96SW2 whole entry): as the sequence (Q96SW2 whole entry) above
GSPT1 protein, sequence (Q16531 whole entry partner): as the sequence (Q16531 whole entry partner) above

[2] = hPBMC, 24 h, serially diluted 0.03-1000 nM

human Cereblon WT GST-tagged protein, sequence (Q96SW2 whole entry): as the sequence (Q96SW2 whole entry) above

Row | SMILES | IC50 [1] | IC50 (MM.1S cells) | IC50 (Mino cells) | concentration at which significant degradation effects on IKZF1 protein are exhibited (FIG. 1) (IKZF1 protein; [2]) | concentration at which significant degradation effects on IKZF3 protein are exhibited (FIG. 1) (IKZF3 protein; [2]) | concentration at which significant degradation effects on GSPT1 protein are exhibited (FIG. 1) (GSPT1 protein; [2]) | residual substrate protein level, IKZF1 (IKZF1 protein) | residual substrate protein level, IKZF3 (IKZF3 protein) | residual substrate protein level, GSPT1 (GSPT1 protein)
1 | O=C1CCC(N2C(=O)c3ccc(CN4CCN(Cc5cnc(-c6ccccc6)cn5)CC4)cc3C2=O)C(=O)N1 (stereo not drawn) [GT-05545, 2-(2,6-dioxopiperidin-3-yl)-5-((4-((5-phenylpyrazin-2-yl)methyl)piperazin-1-yl)methyl)isoindoline-1,3-dione] | – | – | 500 to 1000 nM | – | – | – | B (B represents a residual substrate protein level of >50%) | A (A represents a residual substrate protein level of <50%) | B (B represents a residual substrate protein level of >50%)
2 | O=C1CCC(N2Cc3cc(CN4CCN(Cc5cccc(-c6ccc(Cl)cn6)c5)CC4)ccc3C2=O)C(=O)N1 (stereo not drawn) [GT-05596, 3-(5-((4-(3-(5-chloropyridin-2-yl)benzyl)piperazin-1-yl)methyl)-1-oxoisoindolin-2-yl)piperidine-2,6-dione] | 1340 nM | – | 10 to 50 nM | < 3 nM | < 3 nM | < 3 nM | A (A represents a residual substrate protein level of <50%) | A (A represents a residual substrate protein level of <50%) | B (B represents a residual substrate protein level of >50%)
3 | O=C1CCC(N2Cc3cc(CN4CCN(Cc5cccc(-c6cccs6)c5)CC4)ccc3C2=O)C(=O)N1 (stereo not drawn) [GT-05597, 3-(1-oxo-5-((4-(3-(thiophen-2-yl)benzyl)piperazin-1-yl)methyl)isoindolin-2-yl)piperidine-2,6-dione] | 1400 nM | – | 100 to 500 nM | – | – | – | – | – | –
4 | O=C1CCC(N2Cc3c(ccc(CN4C5CC4CN(Cc4ccccc4-c4ccc(Cl)cc4)C5)c3F)C2=O)C(=O)N1 (stereo not drawn) [GT-05608, 3-(5-((3-((4′-chloro-[1,1′-biphenyl]-2-yl)methyl)-3,6-diazabicyclo[3.1.1]heptan-6-yl)methyl)-4-fluoro-1-oxoisoindolin-2-yl)piperidine-2,6-dione] | 800 nM | – | 500 to 1000 nM | – | – | – | B (B represents a residual substrate protein level of >50%) | A (A represents a residual substrate protein level of <50%) | A (A represents a residual substrate protein level of <50%)
5 | O=C1CCC(N2Cc3cc(CN4CCN(Cc5cccc(-c6ccc(Cl)cc6)c5)CC4)ccc3C2=O)C(=O)N1 (stereo not drawn) [GT-05629, 3-(5-((4-((4′-chloro-[1,1′-biphenyl]-3-yl)methyl)piperazin-1-yl)methyl)-1-oxoisoindolin-2-yl)piperidine-2,6-dione] | 1280 nM | – | 100 to 500 nM | – | – | – | – | – | –
6 | O=C1CCC(N2C(=O)c3ccc(CN4CCN(Cc5ccc(-c6ccncc6)nc5)CC4)cc3C2=O)C(=O)N1 (stereo not drawn) [GT-05634, 5-((4-([2,4′-bipyridin]-5-ylmethyl)piperazin-1-yl)methyl)-2-(2,6-dioxopiperidin-3-yl)isoindoline-1,3-dione] | – | – | 500 to 1000 nM | – | – | – | A (A represents a residual substrate protein level of <50%) | A (A represents a residual substrate protein level of <50%) | B (B represents a residual substrate protein level of >50%)
7 | O=C1CCC(N2Cc3cc(CN4C5CCC4CN(Cc4ccccc4-c4ccc(Cl)cc4)C5)ccc3C2=O)C(=O)N1 (stereo not drawn) [GT-05710, 3-(5-((3-((4′-chloro-[1,1′-biphenyl]-2-yl)methyl)-3,8-diazabicyclo[3.2.1]octan-8-yl)methyl)-1-oxoisoindolin-2-yl)piperidine-2,6-dione] | 1100 nM | – | – | – | – | – | B (B represents a residual substrate protein level of >50%) | A (A represents a residual substrate protein level of <50%) | A (A represents a residual substrate protein level of <50%)

Second part, led by results:

Row | IC50 [1] | IC50 (MM.1S cells) | IC50 (Mino cells) | concentration at which significant degradation effects on IKZF1 protein are exhibited (FIG. 1) (IKZF1 protein; [2]) | concentration at which significant degradation effects on IKZF3 protein are exhibited (FIG. 1) (IKZF3 protein; [2]) | concentration at which significant degradation effects on GSPT1 protein are exhibited (FIG. 1) (GSPT1 protein; [2]) | SMILES | residual substrate protein level, IKZF1 (IKZF1 protein) | residual substrate protein level, IKZF3 (IKZF3 protein) | residual substrate protein level, GSPT1 (GSPT1 protein)
8 | 550 nM | 5 to 10 nM | – | – | – | – | CC1(C)CCC(C(=O)N2CC3CC2CN3Cc2ccc3c(c2)CN(C2CCC(=O)NC2=O)C3=O)=C(c2ccc(F)cc2)C1 (stereo not drawn) [GT-05403, 3-(5-((5-(4′-fluoro-5,5-dimethyl-3,4,5,6-tetrahydro-[1,1′-biphenyl]-2-carbonyl)-2,5-diazabicyclo[2.2.1]heptan-2-yl)methyl)-1-oxoisoindolin-2-yl)piperidine-2,6-dione] | – | – | –
9 | 260 nM | – | 100 to 500 nM | – | – | – | O=C1CCC(N2Cc3cc(CN4CCN(Cc5ccc(-c6cccs6)o5)CC4)ccc3C2=O)C(=O)N1 (stereo not drawn) [GT-05627, 3-(1-oxo-5-((4-((5-(thiophen-2-yl)furan-2-yl)methyl)piperazin-1-yl)methyl)isoindolin-2-yl)piperidine-2,6-dione] | – | – | –
10 | 1160 nM | – | 100 to 500 nM | – | – | – | CC1(C)CCC(CN2CC3(C2)CN(Cc2ccc4c(c2)CN(C2CCC(=O)NC2=O)C4=O)C3)=C(c2ccc(Cl)cc2)C1 (stereo not drawn) [GT-05685, 3-(5-((6-((4′-chloro-5,5-dimethyl-3,4,5,6-tetrahydro-[1,1′-biphenyl]-2-yl)methyl)-2,6-diazaspiro[3.3]heptan-2-yl)methyl)-1-oxoisoindolin-2-yl)piperidine-2,6-dione] | – | – | –
11 | 470 nM | – | 100 to 500 nM | – | – | – | O=C1CCC(N2Cc3cc(CN4CCN(Cc5cccc(-c6ccco6)c5)CC4)ccc3C2=O)C(=O)N1 (stereo not drawn) [GT-05692, 3-(5-((4-(3-(furan-2-yl)benzyl)piperazin-1-yl)methyl)-1-oxoisoindolin-2-yl)piperidine-2,6-dione] | – | – | –
12 | 250 nM | – | 100 to 500 nM | – | – | – | O=C1CCC(N2Cc3cc(CN4CCN(Cc5ccc(-c6ccco6)o5)CC4)ccc3C2=O)C(=O)N1 (stereo not drawn) [GT-05695, 3-(5-((4-([2,2′-bifuran]-5-ylmethyl)piperazin-1-yl)methyl)-1-oxoisoindolin-2-yl)piperidine-2,6-dione] | A (A represents a residual substrate protein level of <50%) | A (A represents a residual substrate protein level of <50%) | B (B represents a residual substrate protein level of >50%)
13 | 210 nM | – | – | – | – | – | O=C1CCC(N2Cc3cc(CN4CCN(Cc5cccc(-c6ccc[nH]6)c5)CC4)ccc3C2=O)C(=O)N1 (stereo not drawn) [GT-05733, 3-(5-((4-(3-(1H-pyrrol-2-yl)benzyl)piperazin-1-yl)methyl)-1-oxoisoindolin-2-yl)piperidine-2,6-dione] | B (B represents a residual substrate protein level of >50%) | A (A represents a residual substrate protein level of <50%) | A (A represents a residual substrate protein level of <50%)
14 | 110 nM | – | 100 to 500 nM | – | – | – | O=C1CCC(N2Cc3cc(CN4CCN(Cc5ccc(-c6ccc[nH]6)cc5)CC4)ccc3C2=O)C(=O)N1 (stereo not drawn) [GT-05734, 3-(5-((4-(4-(1H-pyrrol-2-yl)benzyl)piperazin-1-yl)methyl)-1-oxoisoindolin-2-yl)piperidine-2,6-dione] | B (B represents a residual substrate protein level of >50%) | A (A represents a residual substrate protein level of <50%) | B (B represents a residual substrate protein level of >50%)
15 | 200 nM | – | – | – | – | – | CC1(C)CCC(CN2CCN(Cc3ccc4c(c3)CN(C3CCC(=O)NC3=O)C4=O)C(C(F)(F)F)C2)=C(c2ccc(Cl)cc2)C1 (stereo not drawn) [GT-05796, 3-(5-((4-((4′-chloro-5,5-dimethyl-3,4,5,6-tetrahydro-[1,1′-biphenyl]-2-yl)methyl)-2-(trifluoromethyl)piperazin-1-yl)methyl)-1-oxoisoindolin-2-yl)piperidine-2,6-dione] | B (B represents a residual substrate protein level of >50%) | B (B represents a residual substrate protein level of >50%) | A (A represents a residual substrate protein level of <50%)
16 | 760 nM | – | – | – | – | – | CC1(C)CCC(C(=O)N2CCN(Cc3ccc4c(c3)CN(C3CCC(=O)NC3=O)C4=O)C(C(F)(F)F)C2)=C(c2ccc(Cl)cc2)C1 (stereo not drawn) [GT-05845, 3-(5-((4-(4′-chloro-5,5-dimethyl-3,4,5,6-tetrahydro-[1,1′-biphenyl]-2-carbonyl)-2-(trifluoromethyl)piperazin-1-yl)methyl)-1-oxoisoindolin-2-yl)piperidine-2,6-dione] | B (B represents a residual substrate protein level of >50%) | A (A represents a residual substrate protein level of <50%) | B (B represents a residual substrate protein level of >50%)
17 | 940 nM | – | – | – | – | – | CC1(C)CCC(CN2CCN(Cc3ccc4c(c3)CN(C3CCC(=O)NC3=O)C4=O)C(C(F)(F)F)C2)=C(c2ccc(F)cc2)C1 (stereo not drawn) [GT-05846, 3-(5-((4-((4′-fluoro-5,5-dimethyl-3,4,5,6-tetrahydro-[1,1′-biphenyl]-2-yl)methyl)-2-(trifluoromethyl)piperazin-1-yl)methyl)-1-oxoisoindolin-2-yl)piperidine-2,6-dione] | B (B represents a residual substrate protein level of >50%) | B (B represents a residual substrate protein level of >50%) | A (A represents a residual substrate protein level of <50%)
